We go through eleven molecules from ChEMBL document CHEMBL1201862, “PubChem BioAssay data set” (2004).

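Five compound concentrations were applied to cells in 96-well plates for 48 hours; endpoints were derived by simple linear interpolation of the resulting dose-response curve. Abbreviation: GI50, concentration required for 50% inhibition of growth.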 Active and inactive are the calls of the source. Cut-off read from the data, not from the text of the source: active = GI50 up to about 1.1 µM and inactive = higher.

Among the test systems are ACHN; EKVX; LXFL 529; Malme-3M; OVCAR-5; SK-MEL-28; SNB-19; TK-10; U-251; UACC-257; UACC-62; UO-31; HCT-116; HCT-15; NCI-H522; OVCAR-3; MDA-MB-231; MDA-N; PC-3; SNB-75.
Assay in all cases: growth of human tumour cells (NCI), 48 h

As to `CCN(CC)c1c(C(=O)/C=C/c2ccc(OC)cc2)c(-c2ccccc2)nn(C)c1=O`, the GI50 in the assay with ACHN is 10.9 µM (inactive); with EKVX it was 8 µM (inactive); in the assay on LXFL 529, 10.7 µM (inactive); in the assay on Malme-3M, 15.1 µM (inactive); with OVCAR-5, 5.46 µM (inactive); in the assay with SK-MEL-28 it was 16.7 µM (inactive). Moreover, the GI50 was 17.8 µM (inactive) in the assay with SNB-19; 32.8 µM (inactive) in the assay with TK-10; 13.5 µM (inactive) with U-251; 19.6 µM (inactive) in the assay on UACC-257; 10.5 µM (inactive) in the assay with UACC-62; 36.6 µM (inactive) with UO-31.

Turning to `CC(C)(Oc1ccc2c(=O)cc(-c3ccccc3)oc2c1)C(=O)Nc1c(Cl)cccc1Cl`, the GI50 with EKVX was > 100 µM (inactive); with HCT-116, 59.2 µM (inactive); in the assay on HCT-15 it was 76.7 µM; in the assay on LXFL 529, 81.7 µM (inactive); in the assay on Malme-3M, > 100 µM (inactive); in the assay on NCI-H522, 38 µM (inactive). The GI50 in the assay on OVCAR-3, with OVCAR-5, in the assay on SK-MEL-28, in the assay with SNB-19, in the assay on TK-10 and with U-251 was > 100 µM (inactive) throughout. The GI50 was > 100 µM (inactive) with UACC-257, > 100 µM (inactive) in the assay on UACC-62 and 9.66 µM (inactive) in the assay with UO-31.

Turning to `COC(=O)c1ccc(Cc2ccc(C(=O)OC)o2)o1`, the GI50 with ACHN is > 378 µM (inactive); with EKVX, > 378 µM (inactive); with HCT-116 it was > 378 µM (inactive); with HCT-15, more than 378 µM; with LXFL 529, > 378 µM (inactive); with Malme-3M it was > 378 µM (inactive). The GI50 in the assay on NCI-H522 is > 378 µM (inactive); with OVCAR-3 it was > 378 µM (inactive); in the assay on OVCAR-5, > 378 µM (inactive); in the assay on SK-MEL-28, > 378 µM (inactive); with SNB-19 it was 327 µM (inactive); in the assay on TK-10, > 378 µM (inactive). In addition, the GI50 in the assay with U-251, in the assay on UACC-257 and in the assay on UACC-62 was > 378 µM (inactive) each time.

Consider `O=C1Nc2ccccc2/C1=C1\C(=O)Nc2ccccc21` [ISOINDIGO], for which the GI50 in the assay with ACHN is 12.6 µM (inactive); in the assay with EKVX, 20.7 µM (inactive); with HCT-116, 17 µM (inactive); in the assay with HCT-15 it was 3.84 µM; in the assay on MDA-MB-231, 27.8 µM (inactive); in the assay with MDA-N it was 24.5 µM (inactive). Besides, the GI50 in the assay with Malme-3M was 13.2 µM (inactive); with NCI-H522, 10.3 µM (inactive); in the assay on OVCAR-3, 19.3 µM (inactive); in the assay on OVCAR-5, 3.48 µM (inactive); with PC-3, 9.75 µM (inactive); with SK-MEL-28 it was 91.2 µM (inactive). Moreover, the GI50 was 22.5 µM (inactive) in the assay on SNB-19; 14.1 µM (inactive) with SNB-75; 31.6 µM (inactive) in the assay with TK-10; 11.4 µM (inactive) in the assay on U-251; 31.1 µM (inactive) in the assay with UACC-257; 17.3 µM (inactive) in the assay with UACC-62. Besides, the GI50 in the assay with UO-31 is 13.6 µM (inactive).

For `CCOP(=O)(O)C(Nc1ccc(/N=N/c2ccccc2)cc1)c1cccc(C(Nc2ccc(/N=N/c3ccccc3)cc2)P(=O)(O)OCC)c1` (stereo not given), the GI50 in the assay with ACHN is 45.9 µM (inactive); with EKVX, 57.4 µM (inactive); with HCT-116, 56.6 µM (inactive); in the assay with HCT-15, 24.8 µM; with MDA-MB-231 it was 58.6 µM (inactive); in the assay on MDA-N it was 60.5 µM (inactive). The GI50 in the assay with Malme-3M was > 100 µM (inactive); in the assay on NCI-H522, 20.8 µM (inactive); with OVCAR-3, 55.3 µM (inactive); in the assay with OVCAR-5, 40.6 µM (inactive); in the assay with PC-3 it was 23.9 µM (inactive); with SK-MEL-28, 32.3 µM (inactive). Also, the GI50 with SNB-19 is 59.8 µM (inactive); with SNB-75 it was 44.4 µM (inactive); in the assay on TK-10 it was > 100 µM (inactive); in the assay on U-251 it was 31.2 µM (inactive); with UACC-257, 57 µM (inactive); with UACC-62 it was 29.4 µM (inactive). Also, in the assay with UO-31, the GI50 was 30 µM (inactive).

Take `COc1c(OC)c(OC)c2c(=O)cc(-c3ccc(OC(C)C)cc3)oc2c1OC`: the GI50 in the assay on ACHN was 34.2 µM (inactive); in the assay with EKVX it was 26.4 µM (inactive); with HCT-116, 10.8 µM (inactive); in the assay with HCT-15, 19.4 µM; with MDA-MB-231, 29.3 µM (inactive); in the assay with MDA-N, 31.8 µM (inactive). Further, the GI50 with Malme-3M was 29.4 µM (inactive); in the assay on NCI-H522, 20.9 µM (inactive); with OVCAR-3, 17.9 µM (inactive); in the assay with OVCAR-5, 18.8 µM (inactive); in the assay with PC-3, 18.8 µM (inactive); in the assay with SK-MEL-28, 38.4 µM (inactive). The GI50 was > 38.9 µM (inactive) in the assay on SNB-19; > 35.2 µM (inactive) in the assay with SNB-75; > 38.6 µM (inactive) in the assay on TK-10; > 37.2 µM (inactive) in the assay on U-251; 25.6 µM (inactive) in the assay with UACC-257; 15.8 µM (inactive) in the assay on UACC-62. In addition, the GI50 with UO-31 was 18.2 µM (inactive).

As for `COc1cc2c(c(OC)c1OC)C(=O)[C@@H](O)[C@H]2NC(N)=O`, the GI50 with ACHN was > 100 µM (inactive); in the assay on EKVX, > 100 µM (inactive); with HCT-116, > 100 µM (inactive); with HCT-15 it was more than 100 µM; in the assay on MDA-MB-231 it was > 100 µM (inactive); in the assay with MDA-N, > 100 µM (inactive). The GI50 with Malme-3M, in the assay with NCI-H522, in the assay on OVCAR-3, in the assay with OVCAR-5, with PC-3 and in the assay on SK-MEL-28 was > 100 µM (inactive) in each case. Further, the GI50 in the assay on SNB-19 was > 100 µM (inactive); with SNB-75 it was > 100 µM (inactive); with TK-10 it was > 100 µM (inactive); in the assay with U-251 it was > 100 µM (inactive); in the assay on UACC-257 it was > 100 µM (inactive); in the assay with UACC-62, 83.4 µM (inactive). Moreover, the GI50 in the assay with UO-31 is > 100 µM (inactive).

For the molecule `COC(=O)C(=O)C(C(=O)C1=NS(=O)(=O)c2cc(S(N)(=O)=O)c(Cl)cc2N1)c1nc2ccc(C(=O)c3ccccc3)cc2nc1O` (stereo not given), the GI50 was > 100 µM (inactive) in the assay with ACHN; > 100 µM (inactive) in the assay with EKVX; > 100 µM (inactive) with HCT-116; more than 100 µM with HCT-15; 38.9 µM (inactive) with LXFL 529; > 100 µM (inactive) in the assay with Malme-3M. Moreover, the GI50 was 37.2 µM (inactive) with NCI-H522; 58.7 µM (inactive) in the assay on OVCAR-5; > 100 µM (inactive) with SK-MEL-28; > 100 µM (inactive) in the assay with SNB-19; > 100 µM (inactive) with TK-10; > 100 µM (inactive) in the assay on U-251. In addition, the GI50 with UACC-257 is 71.6 µM (inactive); with UACC-62, 63.2 µM (inactive); in the assay on UO-31, 79.4 µM (inactive).

For `CCOC(=O)c1ccc(/N=c2\oc3ccc(OC)cc3cc2-c2nc3ccccc3[nH]2)cc1`, the GI50 with ACHN was > 100 µM (inactive); in the assay on EKVX it was > 100 µM (inactive); in the assay with HCT-116, > 100 µM (inactive); with HCT-15 it was more than 100 µM; in the assay with MDA-MB-231, 53.7 µM (inactive); in the assay on MDA-N, 55 µM (inactive). Also, the GI50 in the assay on Malme-3M was > 100 µM (inactive); in the assay on NCI-H522 it was 71.6 µM (inactive); with OVCAR-3 it was > 100 µM (inactive); with OVCAR-5 it was 54.3 µM (inactive); in the assay with PC-3, > 100 µM (inactive); in the assay with SK-MEL-28 it was > 100 µM (inactive). Besides, the GI50 was 42.9 µM (inactive) in the assay with SNB-19; 14.1 µM (inactive) in the assay on SNB-75; > 100 µM (inactive) with TK-10; 31.4 µM (inactive) in the assay on U-251; > 100 µM (inactive) with UACC-257; > 100 µM (inactive) with UACC-62. Besides, the GI50 in the assay with UO-31 is > 100 µM (inactive).

Turning to `NC(CC(=O)Nc1cc(C(F)(F)F)ccc1Cl)=NO`, the GI50 with ACHN was > 100 µM (inactive); with EKVX, > 100 µM (inactive); with HCT-116, > 100 µM (inactive); with HCT-15 it was more than 100 µM; in the assay on MDA-MB-231 it was > 100 µM (inactive); with MDA-N it was > 100 µM (inactive). Further, the GI50 with Malme-3M, with NCI-H522, with OVCAR-3, in the assay on OVCAR-5, in the assay on PC-3 and in the assay with SK-MEL-28 was > 100 µM (inactive) in each case. The GI50 in the assay on SNB-19, in the assay on SNB-75, in the assay with TK-10, in the assay with U-251, in the assay with UACC-257 and with UACC-62 was > 100 µM (inactive) throughout. The GI50 with UO-31 is > 100 µM (inactive).

For the molecule `O=C(/C=C/c1ccc(F)c(F)c1)OCCc1ccccc1`, the GI50 with ACHN was > 100 µM (inactive); with EKVX, > 100 µM (inactive); in the assay on HCT-116, 74.5 µM (inactive); in the assay on HCT-15, 58.5 µM; with MDA-MB-231, > 100 µM (inactive); in the assay on MDA-N it was 73.5 µM (inactive). The GI50 is > 100 µM (inactive) in the assay on Malme-3M; 38.6 µM (inactive) with NCI-H522; > 100 µM (inactive) with OVCAR-3; > 100 µM (inactive) with OVCAR-5; > 100 µM (inactive) in the assay on PC-3; > 100 µM (inactive) in the assay on SK-MEL-28. Besides, the GI50 in the assay on SNB-19 was > 100 µM (inactive); in the assay on SNB-75 it was 84.5 µM (inactive); with TK-10 it was > 100 µM (inactive); in the assay on U-251, > 100 µM (inactive); with UACC-257, > 100 µM (inactive); with UACC-62 it was > 100 µM (inactive). The GI50 in the assay on UO-31 was 90.4 µM (inactive).
